According to US20250177566A1, “USE OF CHEMICAL EPIGENETIC MODIFIERS TO MODULATE GENE EXPRESSION” (The University of North Carolina at Chapel Hill, priority 2022, published 2025):

Experiments:
Format in all cases: cell-based, human
TRE3G-GFP reporter gene = TRE3G-GFP reporter gene activation in HCT116, dCas9 + MS2-FKBP*x2 (F36V) system, flow cytometry; parameters: fold change, GFP: reference not given here; conditions: FIG. 5A, 10 nM, 48 hrs
CXCR4 [1] = assay: CXCR4 mRNA activation in HCT116 stably expressing dCas9 and MS2-FKBPx2 (WT-FKBP), qRT-PCR; conditions: FIG. 6, WT FKBP system, 48 hrs
CXCR4 [2] = assay: CXCR4 mRNA activation in HCT116 stably expressing dCas9 and MS2-FKBP*x2, qRT-PCR; conditions: for fold change, CXCR4 mRNA (CEM Treated vs Non-Treated): 48 hrs; for fold change, CXCR4 mRNA (CXCR4 gRNA vs NT gRNA): FIG. 3B; for fold change, CXCR4 mRNA (CXCR4 gRNA vs NT gRNA) / fold change, CXCR4 mRNA (washout vs AP1867 competition) / fold change, CXCR4 mRNA (Compare to 0 h): CEM203 50 nM; for fold change, CXCR4 mRNA (washout vs AP1867 competition): FIG. 3C; for fold change, CXCR4 mRNA (Compare to 0 h): FIG. 7A
Summary of the method: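 HCT116 cells stably expressing dCas9 and MS2-FKBP*x2 with CXCR4 gRNA were treated with CEMs (screen at 5 nM; 1–50 nM range). CXCR4 mRNA measured by one-step qRT-PCR after 48 h, or at 12–96 h in time course. Reversibility tested by washout after 24 h, optionally with 20 μM AP1867.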

CC[C@H](C(=O)N1CCCC[C@H]1C(=O)O[C@H](CCc1ccc(OC)c(OC)c1)c1cccc(OCC(=O)NCCOCCOCCOCCOCCNC(=O)C[C@@H]2N=C(c3ccc(Cl)cc3)c3cc(OC)ccc3-n3c(C)nnc32)c1)c1cc(OC)c(OC)c(OC)c1 [CEM203, (1R)-1-(3-((20-((4S)-6-(4-Chlorophenyl)-8-methoxy-1-methyl-4H-benzo[f][1,2,4]triazolo[4,3-a][1,4]diazepin-4-yl)-2,19-dioxo-6,9,12,15-tetraoxa-3,18-diazaicosyl)oxy)phenyl)-3-(3,4-dimethoxyphenyl) propyl (2S)-1-((S)-2-(3,4,5-trimethoxyphenyl)butanoyl) piperidine-2-carboxylate]
fold change, GFP (TRE3G-GFP reporter gene; NT gRNA): 0.7 fold | fold change, GFP (TRE3G-GFP reporter gene; TRE3G gRNA): 9.4 fold | fold change, CXCR4 mRNA (CXCR4 gRNA vs NT gRNA) (CXCR4 [1]; 25 nM): 1.5 fold | fold change, CXCR4 mRNA (CXCR4 gRNA vs NT gRNA) (CXCR4 [1]; 200 nM): 3.5 fold | fold change, CXCR4 mRNA (CEM Treated vs Non-Treated) (CXCR4 [2]; FIG. 2D, CXCR4 gRNA, 1 nM): 2.3 fold | fold change, CXCR4 mRNA (CEM Treated vs Non-Treated) (CXCR4 [2]; FIG. 2D, CXCR4 gRNA, 5 nM): 13.0 fold | fold change, CXCR4 mRNA (CEM Treated vs Non-Treated) (CXCR4 [2]; FIG. 2D, CXCR4 gRNA, 25 nM): 35.9 fold | fold change, CXCR4 mRNA (CEM Treated vs Non-Treated) (CXCR4 [2]; FIG. 2D, CXCR4 gRNA, 50 nM): 54.0 fold | fold change, CXCR4 mRNA (CEM Treated vs Non-Treated) (CXCR4 [2]; FIG. 2D, NT gRNA, 1 nM): 0.98 fold | fold change, CXCR4 mRNA (CEM Treated vs Non-Treated) (CXCR4 [2]; FIG. 2D, NT gRNA, 5 nM): 1.30 fold | fold change, CXCR4 mRNA (CEM Treated vs Non-Treated) (CXCR4 [2]; FIG. 2D, NT gRNA, 25 nM): 2.42 fold | fold change, CXCR4 mRNA (CEM Treated vs Non-Treated) (CXCR4 [2]; FIG. 2D, NT gRNA, 50 nM): 2.57 fold | CXCR4 activation compared to dCas9-p300 (CXCR4 [2]; FIG. 2D, concentrations above 5 nM): higher CXCR4 activation | fold change, CXCR4 mRNA (CXCR4 gRNA vs NT gRNA) (CXCR4 [2]; 24 h): 17.9 fold | fold change, CXCR4 mRNA (CXCR4 gRNA vs NT gRNA) (CXCR4 [2]; 48 h): 19.8 fold | fold change, CXCR4 mRNA (CXCR4 gRNA vs NT gRNA) (CXCR4 [2]; 48 h AP1867 (washout with 20 μM AP1867 after 24 hrs)): 3.6 fold | fold change, CXCR4 mRNA (CXCR4 gRNA vs NT gRNA) (CXCR4 [2]; 48 h wash (media washout after 24 hrs)): 7.7 fold | fold change, CXCR4 mRNA (CXCR4 gRNA vs NT gRNA) (CXCR4 [2]; 72 h): 13.1 fold | fold change, CXCR4 mRNA (CXCR4 gRNA vs NT gRNA) (CXCR4 [2]; 72 h AP1867 (washout with 20 μM AP1867 after 24 hrs)): 1.9 fold | fold change, CXCR4 mRNA (CXCR4 gRNA vs NT gRNA) (CXCR4 [2]; 72 h wash (media washout after 24 hrs)): 5.6 fold | fold change, CXCR4 mRNA (CXCR4 gRNA vs NT gRNA) (CXCR4 [2]; 96 h AP1867 (washout with 20 μM AP1867 after 24 hrs)): 1.2 fold | fold change, CXCR4 mRNA (CXCR4 gRNA vs NT gRNA) (CXCR4 [2]; 96 h wash (media washout after 24 hrs)): 3.3 fold | fold change, CXCR4 mRNA (washout vs AP1867 competition) (CXCR4 [2]; 48 h): 1.5 fold | fold change, CXCR4 mRNA (washout vs AP1867 competition) (CXCR4 [2]; 72 h): 4.2 fold | fold change, CXCR4 mRNA (washout vs AP1867 competition) (CXCR4 [2]; 96 h): 1.7 fold | fold change, CXCR4 mRNA (Compare to 0 h) (CXCR4 [2]; NT gRNA, 12 h): 4.9 fold | fold change, CXCR4 mRNA (Compare to 0 h) (CXCR4 [2]; NT gRNA, 24 h): 2.2 fold | fold change, CXCR4 mRNA (Compare to 0 h) (CXCR4 [2]; NT gRNA, 48 h): 1.1 fold | fold change, CXCR4 mRNA (Compare to 0 h) (CXCR4 [2]; NT gRNA, 48 h AP1867 (washout with 20 μM AP1867 after 24 hrs)): 0.8 fold | fold change, CXCR4 mRNA (Compare to 0 h) (CXCR4 [2]; NT gRNA, 48 h wash (media washout after 24 hrs)): 0.7 fold | fold change, CXCR4 mRNA (Compare to 0 h) (CXCR4 [2]; NT gRNA, 72 h): 1.0 fold | fold change, CXCR4 mRNA (Compare to 0 h) (CXCR4 [2]; NT gRNA, 72 h AP1867 (washout with 20 μM AP1867 after 24 hrs)): 0.6 fold | fold change, CXCR4 mRNA (Compare to 0 h) (CXCR4 [2]; NT gRNA, 72 h wash (media washout after 24 hrs)): 0.8 fold | fold change, CXCR4 mRNA (Compare to 0 h) (CXCR4 [2]; NT gRNA, 96 h): 1.3 fold | fold change, CXCR4 mRNA (Compare to 0 h) (CXCR4 [2]; NT gRNA, 96 h AP1867 (washout with 20 μM AP1867 after 24 hrs)): 0.5 fold | fold change, CXCR4 mRNA (Compare to 0 h) (CXCR4 [2]; NT gRNA, 96 h wash (media washout after 24 hrs)): 0.7 fold | CXCR4 mRNA expression after CEM washout in comparison to cells continuously treated (CXCR4 [2]; FIGS. 3C and 3D, CEM203 50 nM or CEM207 25 nM for 24 hours, then media exchange, all time points): significantly lowered CXCR4 mRNA expression | time point of highest (peak) CXCR4 mRNA activation (CXCR4 [2]; time course 12, 24, 48, 72, 96 hrs, CXCR4 gRNA): 24 h
